Laboratory results from the supplement of paper PMC6045584.
± gives the standard deviation of the averaged measurements.

Key:
[1] = compound: CC(=O)NCC(=O)N1[C@@H]2CC[C@H]1c1ccc(Nc3ncc(C(F)(F)F)c(NC4CCC4)n3)cc12; assay: area under dose-response curve of surviving fraction (unscaled, Aref=0) (surviving fraction x log10(nM)); higher = more resistant; conditions: exposure time: 5 days; dose range 0.5-1000 nM
Outline: (§1)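 Tumour cell lines in 384-well plates were exposed for five days to eight inhibitor concentrations from 0.5 to 1000 nM. Viability was read by CellTiter-Glo luminescence, normalised to DMSO-only wells, in three screens per line. Dose-response survival curves were fitted to surviving fractions by 3-parameter logistic regression in the drc R package. Area under the curve is the unscaled activity area (Aref = 0) over log10 dose.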

OSI-906 [2] = compound: T1, C[C@]1(O)C[C@@H](c2nc(-c3ccc4ccc(-c5ccccc5)nc4c3)c3c(N)nccn32)C1 [OSI-906]; assay: as above; conditions: exposure time: 5 days; dose range 0.5-1000 nM
Outline: as §1

YM155 = compound: COCC[n+]1c2c(n(Cc3cnccn3)c1C)C(=O)c1ccccc1C2=O [YM155]; assay: as above; conditions: exposure time: 5 days; dose range 0.5-1000 nM
Outline: as §1

PACLITAXEL = compound: CC(=O)O[C@H]1C(=O)[C@@]2(C)[C@H]([C@H](OC(=O)c3ccccc3)[C@]3(O)C[C@H](OC(=O)[C@H](O)[C@@H](NC(=O)c4ccccc4)c4ccccc4)C(C)=C1C3(C)C)[C@]1(OC(C)=O)CO[C@@H]1C[C@@H]2O [PACLITAXEL]; assay: as above; conditions: exposure time: 5 days; dose range 0.5-1000 nM
Outline: as §1

CARBOPLATIN = compound: O=C(O)C1(C(=O)O)CCC1.[NH2-].[NH2-].[Pt+2] [CARBOPLATIN]; assay: as above; conditions: exposure time: 5 days; dose range 0.5-1000 nM
Outline: as §1

GEFITINIB = compound: COc1cc2ncnc(Nc3ccc(F)c(Cl)c3)c2cc1OCCCN1CCOCC1 [GEFITINIB]; assay: as above; conditions: exposure time: 5 days; dose range 0.5-1000 nM
Outline: as §1

CELECOXIB = compound: Cc1ccc(-c2cc(C(F)(F)F)nn2-c2ccc(S(N)(=O)=O)cc2)cc1 [CELECOXIB]; assay: as above; conditions: exposure time: 5 days; dose range 0.5-1000 nM
Outline: as §1

CAMPTOTHECIN = compound: CC[C@@]1(O)C(=O)OCc2c1cc1n(c2=O)Cc2cc3ccccc3nc2-1 [CAMPTOTHECIN]; assay: as above; conditions: exposure time: 5 days; dose range 0.5-1000 nM
Outline: as §1

[3] = compound: CC(=O)c1c(C)c2cnc(Nc3ccc(N4CCNCC4)cn3)nc2n(C2CCCC2)c1=O; assay: as above; conditions: exposure time: 5 days; dose range 0.5-1000 nM
Outline: as §1

OSI-906 [4] = compound: T1, OSI-906; assay: surviving fraction relative to DMSO-only wells; higher = less growth inhibition; conditions: exposure time: 5 days
Outline: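 Surviving fraction is CellTiter-Glo luminescence divided by the median of wells given DMSO only. For this, log-phase tumour cell lines went into 384-well plates at 250–500 cells per well and, 24 hours later, into five days of continuous inhibitor exposure at 0.5, 1, 5, 10, 50, 100, 500 and 1000 nM. Lines were screened three times and retained only if replicate Pearson r >0.7 and median Z' >0.3.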

| Test System | area under dose-response curve [1] | area under dose-response curve (OSI-906 [2]) | area under dose-response curve (YM155) | area under dose-response curve (PACLITAXEL) | area under dose-response curve (CARBOPLATIN) | area under dose-response curve (GEFITINIB) | area under dose-response curve (CELECOXIB) | area under dose-response curve (CAMPTOTHECIN) | area under dose-response curve [3] | surviving fraction (OSI-906 [4]; 0.5 nM) | surviving fraction (OSI-906 [4]; 1 nM) | surviving fraction (OSI-906 [4]; 5 nM) | surviving fraction (OSI-906 [4]; 10 nM) | surviving fraction (OSI-906 [4]; 50 nM) | surviving fraction (OSI-906 [4]; 100 nM) | surviving fraction (OSI-906 [4]; 500 nM) | surviving fraction (OSI-906 [4]; 1000 nM) |
| --- | --- | --- | --- | --- | --- | --- | --- | --- | --- | --- | --- | --- | --- | --- | --- | --- | --- |
| HELA CERVIX | 2.21 | 3.27 | 1.07 | 0.718 | 3.53 | 3.66 | 3.64 | 1.99 | 3.5 | 0.971 ± 0.033 | 0.981 ± 0.054 | 0.955 ± 0.069 | 0.88 ± 0.09 | 1.03 ± 0.035 | 1.07 ± 0.036 | 1 ± 0.081 | 1.01 ± 0.048 |
| MDAMB436 BREAST | 2.63 | 2.93 | 1.42 | 1.01 | 3.18 | 3.12 | 3.4 | 1.06 | 3.02 | 0.805 ± 0.047 | 0.875 ± 0.055 | 0.887 ± 0.17 | 0.828 ± 0.054 | 0.948 ± 0.11 | 0.89 ± 0.068 | 0.985 ± 0.15 | 0.855 ± 0.12 |
| HU09 BONE | 2.44 | 2.66 | 2.13 | 0.426 | 3.58 | 3.37 | 3.26 | 0.747 | 3.47 | 0.79 ± 0.071 | 0.852 ± 0.082 | 0.956 ± 0.067 | 0.909 ± 0.043 | 0.854 ± 0.11 | 0.785 ± 0.027 | 0.517 ± 0.087 | 0.481 ± 0.04 |
| NCIH441 LUNG | 2.94 | 3.21 | 1.12 | 1.56 | 3.51 | 3.59 | 3.66 | 1.41 | 3.59 | 0.976 ± 0.058 | 1 ± 0.033 | 0.993 ± 0.07 | 0.969 ± 0.03 | 1.04 ± 0.034 | 1.03 ± 0.028 | 0.841 ± 0.019 | 0.737 ± 0.048 |
| OSHN BONE | 2.43 | 2.89 | 0.946 | 0.555 | 3.65 | 3.72 | 3.7 | 0.918 | 3.62 | 0.887 ± 0.024 | 0.912 ± 0.026 | 0.902 ± 0.028 | 0.884 ± 0.046 | 0.945 ± 0.0072 | 0.927 ± 0.013 | 0.758 ± 0.012 | 0.732 ± 0.027 |
| H23 LUNG | 2.73 | 2.81 | 0.646 | 0.876 | 3.55 | 2.37 | 3.59 | 1.1 | 3.51 | 0.902 ± 0.047 | 0.897 ± 0.044 | 0.931 ± 0.05 | 0.904 ± 0.03 | 0.879 ± 0.031 | 0.848 ± 0.061 | 0.662 ± 0.016 | 0.607 ± 0.03 |
| NY BONE | 2.51 | 3.15 | 2.96 | 0.337 | 3.46 | 3.43 | 3.48 | 1.16 | 3.46 | 0.9347 ± 0.009 | 0.9183 ± 0.0031 | 1.027 ± 0.01 | 0.96 ± 0.011 | 1 ± 0.011 | 0.977 ± 0.035 | 0.903 ± 0.023 | 0.915 ± 0.038 |
| JIMT1 BREAST | 2.96 | 3.15 | 1.39 | 0.48 | 3.31 | 3.29 | 3.51 | 1.8 | 3.35 | 0.921 ± 0.029 | 0.892 ± 0.02 | 0.92 ± 0.063 | 0.926 ± 0.03 | 1.02 ± 0.039 | 1.08 ± 0.094 | 1.02 ± 0.077 | 1.02 ± 0.046 |
| MCF7 BREAST | 2.53 | 2.69 | 1.18 | 1.43 | 3.08 | 3.14 | 3.11 | 1.55 | 3.03 | 0.832 ± 0.042 | 0.85 ± 0.044 | 0.816 ± 0.022 | 0.825 ± 0.056 | 0.831 ± 0.018 | 0.847 ± 0.029 | 0.722 ± 0.036 | 0.661 ± 0.013 |
| OS25HAL BONE | 2.55 | 2.57 | 0.935 | 1.01 | 3.56 | 3.55 | 3.54 | 0.945 | 3.42 | 0.866 ± 0.066 | 0.892 ± 0.017 | 0.894 ± 0.025 | 0.871 ± 0.017 | 0.854 ± 0.039 | 0.762 ± 0.016 | 0.354 ± 0.015 | 0.256 ± 0.037 |
| HSSYII SYNOVIAL | 1.97 | 2.6 | 0.716 | 0.524 | 3.19 | 3.35 | 3.39 | 0.531 | 3.04 | 0.8472 ± 0.0081 | 0.85 ± 0.027 | 0.9002 ± 0.0069 | 0.798 ± 0.021 | 0.814 ± 0.026 | 0.746 ± 0.04 | 0.673 ± 0.03 | 0.656 ± 0.026 |
| DU4475 BREAST | 1.69 | 2.23 | 1.66 | 0.884 | 3.22 | 3.01 | 2.98 | 0.671 | 3.51 | 0.863 ± 0.18 | 0.825 ± 0.18 | 0.726 ± 0.089 | 0.786 ± 0.12 | 0.785 ± 0.18 | 0.553 ± 0.043 | 0.41 ± 0.024 | 0.36 ± 0.08 |
